# Results taken from US11169138B2, “Nanopores with internal protein adaptors” (priority 2015, dated 2021).
# Like-named read-outs stand apart in the source and are kept apart here.
# T1: AlkB-Fe^++ (E. coli AlkB demethylase) (Escherichia coli, UniProt P05050)
# T1 construct: made in house; host or cells: E. cloni EXPRESS BL21(DE3) E. coli
# T1 sequence (P05050 with tags, fused parts or gaps): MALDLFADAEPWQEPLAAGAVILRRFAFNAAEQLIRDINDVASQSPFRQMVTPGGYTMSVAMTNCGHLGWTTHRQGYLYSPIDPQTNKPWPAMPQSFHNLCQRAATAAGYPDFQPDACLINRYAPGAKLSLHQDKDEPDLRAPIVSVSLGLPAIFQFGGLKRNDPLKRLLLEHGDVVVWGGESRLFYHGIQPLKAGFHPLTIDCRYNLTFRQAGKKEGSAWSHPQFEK
# B1: AlkB-Fe^++ (protein, UniProt P05050 1-216, looked up)
# Alpha-ketoglutarate-dependent …: MLDLFADAEPWQEPLAAGAVILRRFAFNAAEQLIRDINDVASQSPFRQMVTPGGYTMSVAMTNCGHLGWTTHRQGYLYSPIDPQTNKPWPAMPQSFHNLCQRAATAAGYPDFQPDACLINRYAPGAKLSLHQDKDEPDLRAPIVSVSLGLPAIFQFGGLKRNDPLKRLLLEHGDVVVWGGESRLFYHGIQPLKAGFHPLTIDCRYNLTFRQAGKKE
# modifications: Fe2+ bound
# Columns and labels:
# [1] = molecular target: T1, AlkB-Fe^++ (E. coli AlkB demethylase); test: Ligand binding to AlkB-Fe++ confined inside ClyA-AS nanopore, single-channel ionic current recording
# Method: The applied potential refers to the potential of the trans electrode. ClyA-AS nanopores were inserted into lipid bilayers from the cis compartment, which was connected to the ground electrode. The two compartments were separated by a 25 μm thick polytetrafluoroethylene film (Goodfellow Cambridge Limited) containing an orifice of ˜100 μm in diameter. The aperture was pretreated with ˜5 μl of 10% hexadecane in pentane and a bilayer was formed by the addition of ˜10 μL of 1,2-diphytanoyl-sn-glycero-3-phosphocholine (DPhPC) in pentane (10 mg/mL) to both electrophysiology chambers. Typically, the addition of 0.01-0.1 ng of oligomeric ClyA-AS to the cis compartment (0.5 mL) was sufficient to obtain a single channel. […] Electrical recordings were carried out in 150 mM NaCl, 15 mM Tris.HCl pH 8.0 (AlkB experiments) or 150 mM NaCl, 15 mM Tris.HCl pH 7.5 (DHFR experiments). The temperature of the recording chamber was maintained at 28° C. by water circulating through a metal case in direct contact with the bottom and sides of the chamber.
# (§1) Electrical signals from planar bilayer recordings were amplified using an Axopatch 200B patch clamp amplifier (Axon Instruments) and digitized with a Digidata 1440 A/D converter (Axon Instruments). Data were recorded by using the Clampex 10.4 software (Molecular Devices) and the subsequent analysis was carried out with the Clampfit software (Molecular Devices). Electrical recordings were performed in 150 mM NaCl, 15 mM Tris.HCl pH 8.0 (AlkB) or pH 7.5 (DHFR) by applying a 2 kHz low-pass Bessel filter and a 10 kHz sampling rate. For further analysis traces were filtered digitally with a Bessel (8-pole) low-pass filter with a 50 Hz cut-off. Residual current values (IRES%) were calculated from blocked pore current values (IB) and open pore current values (IO) as IRES %=100*IB/IO. IB and IO were determined from Gaussian fits to all point current histograms (0.05 pA bin size) for at least 15 individual protein blockades. ΔIRES % values were calculated from IRES % using propagation of errors.
# Current transitions from level 1 were analyzed with the “single-channel search” function in Clampfit. The detection threshold to collect the ligand-induced events for AlkB was set to 4 pA and events shorter than 10 ms were ignored. […] The resulting event dwell times (toff) and the time between events (ton) were binned together as cumulative distributions and fitted to a single exponential to retrieve the ligand-induced lifetimes (τoff) and the ligand-induced event frequencies (f=1/τon). The process of event collection was monitored manually. For AlkB, final values of τon and τoff were based on average values derived from at least 3 single channel experiments at each concentration. Each experiment analysed more than 8 AlkB blockades. At the low ligand concentrations (0.2 mM) about 100 ligand-binding events were measured. Otherwise more than 150 events were collected. […] Subsequently, the ton values were binned together as cumulative distributions and fitted to a single exponential fit to retrieve characteristic τon values. The values for koff represented in FIG. 2b and FIG. 4b were determined by taking the average±standard deviations of 1/toff of at least 3 single channel experiments. The values of the association rate constants (kon) were determined from the slope of the linear regression curves calculated from the dependency of the event frequencies (f=1/τon) on the ligand concentration (OriginLab, FIGS. 2b and 4b). Graphs were made with Origin (OriginLab Corporation) or Clampfit software (Molecular Devices).
# 9, 872-877; Bleijlevens, B. et al. (2012) Biochem. 2012, 51, 3334-3341].
# SBD1 = SBD1 (Lactococcus lactis, UniProt Q9CES5); test: Asparagine binding to SBD1 inside type I ClyA-AS nanopore
# Method: The interaction of SBD1 with asparagine was sampled using type I ClyA-AS nanopores. ClyA-AS (C87A/L99Q/E103G/F166Y/I203V/C285S/K294R/H307Y). In 150 mM NaCl and 15 mM Tris-HCl (pH 7.5), the addition of 74 nM of SBD1 to the cis compartment of Type I ClyA-AS induced transient current blockades at negative applied potentials (trans). […] Every 3.5±0.1 s^−1 (mean±S.E., n=212) the current switched to Level II (Ires %=66.8±0.4%, N=5) with a lifetime of 109±1 ms (mean±S.E., n=340). The protein blockades released spontaneously after 4.2±1.8 s (mean±S.E., n=291).
# The dissociation constant was determined by titrating the substrate and plotting the relative closed population (CL/(O+CL)), determined from the area of the all point current histogram, versus the concentration. […] The closing and opening rate constants were determined from the inverse of the open and closed state lifetimes respectively and were plotted versus the asparagine concentration. The closing rate was linearly dependent on the substrate concentration and the slope of the linear fit gave the kclosing=1.2×10^7 s^−1 M^−1.
# SBD2 = SBD2 (Lactococcus lactis, UniProt Q9CES5); test: Glutamine binding to SBD2 inside type I ClyA-AS nanopore
# Method: The interaction of SBD2 with glutamine was sampled using type I ClyA-AS nanopores at −100 mV. The addition of 72 nM of SBD2 induced a current blockade that fluctuated between two levels I (Ires %=63.6±0.3%, τ=256±5 ms, N=3) and level III (Ires %=61.0±0.2%, τ=145±13 ms, N=3). Protein blockades remained inside the nanopore for 3.9±0.7 s (mean±S.E., n=225). Rarely the current visited an additional ionic current level, Level II (Ires %=62.5±0.3%, τ=18±1 ms, n=856, N=3).
# We studied ligand binding by stepwise addition of glutamine at concentrations ranging from 200 nM to 3 μM. […] Binding rates were determined from the lifetimes as described above. Upon linear fitting of the binding rate curve the glutamine binding rates from Level I and III were determined. […] The opening rate constant was determined by the intercept at zero koff=39.7 s^1.
# Type I ClyA-AS nanopore = test: Current blockades from capture of protein adaptors by Type I ClyA-AS nanopore; design: species or system S. Typhi; details: ~4 nM cis, −60 mV
# Method: The applied potential refers to the potential of the trans electrode. ClyA-AS nanopores were inserted into lipid bilayers from the cis compartment, which was connected to the ground electrode. The two compartments were separated by a 25 μm thick polytetrafluoroethylene film (Goodfellow Cambridge Limited) containing an orifice of ˜100 μm in diameter. The aperture was pretreated with ˜5 μl of 10% hexadecane in pentane and a bilayer was formed by the addition of ˜10 μL of 1,2-diphytanoyl-sn-glycero-3-phosphocholine (DPhPC) in pentane (10 mg/mL) to both electrophysiology chambers. […]
# as §1, with “Electrical recordings were performed in 150 mM NaCl, 15 mM Tris.HCl pH 8.0 (AlkB) or pH 7.5 (DHFR) by applying a 2 kHz low-pass Bessel filter and a 10 kHz sampling rate. For further analysis traces were filtered digitally with a Bessel (8-pole) low-pass filter with a 50 Hz cut-off.” left out
# SBD1, sequence (Q9CES5 entry or part of it): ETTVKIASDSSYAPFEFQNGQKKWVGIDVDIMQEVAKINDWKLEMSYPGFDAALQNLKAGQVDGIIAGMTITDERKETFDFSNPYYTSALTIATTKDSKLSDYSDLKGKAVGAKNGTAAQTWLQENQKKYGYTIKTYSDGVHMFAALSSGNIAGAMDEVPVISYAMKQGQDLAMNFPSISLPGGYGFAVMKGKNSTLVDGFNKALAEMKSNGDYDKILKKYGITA
# SBD2, sequence (Q9CES5 entry or part of it): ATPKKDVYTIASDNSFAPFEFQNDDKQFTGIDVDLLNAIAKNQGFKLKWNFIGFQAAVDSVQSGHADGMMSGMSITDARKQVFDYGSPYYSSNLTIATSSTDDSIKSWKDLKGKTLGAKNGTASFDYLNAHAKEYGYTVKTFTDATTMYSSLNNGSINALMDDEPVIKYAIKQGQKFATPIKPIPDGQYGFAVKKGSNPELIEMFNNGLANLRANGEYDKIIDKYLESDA
molecule,measurement,setting,value
"O=C(O)CCC(=O)O [SUC, succinate]",L2B ΔIRES % (ligand-induced current enhancement from L2),"[1]; −60 mV, 150 mM NaCl, 15 mM Tris HCl pH 8.0, 28° C., ligand cis",+2.1 ± 1.0%
same,mean duration (toff) of ligand-induced events,"[1]; −60 mV, ligand cis",61 ± 11 ms
same,koff −60 mV,"[1]; −60 mV, pH 8.0, 28° C.",16.6 ± 2.6 s⁻¹
same,kon −60 mV,"[1]; −60 mV, pH 8.0, 28° C., slope of event frequency vs concentration",9.2 ± 1.3 × 10^2 s^−1 M^−1
NC(=O)C[C@H](N)C(=O)O [asparagine],Kd,SBD1,470 ± 30 nM
same,kon,"SBD1; pH 7.5, read-out: kclosing",1.2e+07 M⁻¹ s⁻¹
same,koff,"SBD1; pH 7.5, read-out: kopening",9.4 s⁻¹
NC(=O)CC[C@H](N)C(=O)O [glutamine],Kd,SBD2,1270 ± 140 nM
same,kon,"SBD2; read-out: kon, binding from Level I",3.7e+07 M⁻¹ s⁻¹
same,kon,"SBD2; read-out: kon, binding from Level II (so in the source)",3.8e+07 M⁻¹ s⁻¹
same,koff (opening rate constant),"SBD2; −100 mV, intercept at zero",39.7 s^1
B1,AlkB-Fe++ blockades not showing ligand-induced transitions,[1],About 30%
same,time trapped inside the nanopore,Type I ClyA-AS nanopore,several minutes
